Results as given in patent US20170290844A1, “Methods of Treatment” (GlaxoSmithKline Intellectual Property Development Limited, priority 2014, published 2017).

What was measured:
[1] = tested on: ALI cultured COPD BECs infected with HRV16; test: Protein secretion of immune mediators in supernatants of ALI cultured COPD BECs (MSD/ELISA); type: cell-based, human; details: 72 h post HRV16 infection
Description: (§1) Air-liquid interface (ALI) cultured human bronchial epithelial cells (BECs) from chronic obstructive pulmonary disease (COPD) donors were either bought fully differentiated (Epithelix Sarl, Cat. No. EP10MD) or cultured in-house using the Pneumocult method (StemCell Technologies, Cat. No. 05001), in a 24-well format. Primary cells for in-house ALI cultures were obtained from Epithelix Sarl, Cat. No. EP18AB.
(§2) Prior to infection, ALI cells were washed twice in warm PBS (with Ca2^+/Mg2^+). Subsequently, human rhinovirus 16 was applied at multiplicity of infection (MOI) of 1 or 5 in a total volume of 50 μl culture medium. The virus was allowed to attach for 1h at room temperature with gentle agitation. […]
Detection of secreted proteins was done on the Meso Scale Discovery (MSD®) platform according to the manufacturer's protocol. Chemokines CXCL6 and CCL5 were detected by enzyme linked immunosorbent assay (ELISA) kits both bought from R&D systems, Cat. Nos. DY333 and DRN00B, respectively. […] Analytical flow cytometry was performed using the FACSCanto II (Beckton Dickinson) and analysed using FlowJo software (Tree Star, Inc. Ashland, US).

T-cell = T-cell chemotaxis in response to supernatants from HRV16 infected COPD BECs; type: cell-based; details: supernatants of COPD BECs 72 h post HRV16 infection
healthy neutrophil = test: Neutrophil chemotaxis in response to supernatants from HRV16 infected COPD BECs; type: cell-based; details: supernatants of COPD BECs 72 h post HRV16 infection, versus untreated infected samples
[2] = tested on: COPD bronchial epithelial cells infected with HRV16; test: Genome-wide transcriptional analysis by microarray of COPD BECs infected with HRV16; type: cell-based, human; details: 72 h HRV16 infection
Description: as §1
(§3) Prior to infection, ALI cells were washed twice in warm PBS (with Ca2^+/Mg2^+). Subsequently, human rhinovirus 16 was applied at multiplicity of infection (MOI) of 1 or 5 in a total volume of 50 μl culture medium. The virus was allowed to attach for 1h at room temperature with gentle agitation. Consequently, the virus was washed off with warm PBS (with Ca2^+/Mg2^+) and cells were further cultured at 37° C. for the indicated amount of time either with or without the addition of a rsecretase inhibitor CompA (S)-2-[2-(3,5-difluorophenyl)-acetylamino]-N—((S)-1-methyl-2-oxo-5-phenyl-2,3-dihydro-1H-benzo[e][1,4]diazepin-3-yl)-propionamide, (Calbiochem Cat. No. 565790).
(§4) Ribonucleic acid (RNA) from ALI cultured COPD BECs was prepared by lysing the cells in RLT buffer supplied with Promega Total RNA Isolation System (Promega, Cat. No. Z3505). RNA was then extracted by using the manufacturer's protocol with automation. Murine total lung RNA was isolated by first homogenisation of the lung in 1 ml TRIZOL™ reagent, then subsequent phase separation with 1-bromo-3-chloropropane (BCP) (MRC, Cat. No. BP151). The aqueous phase was then mixed with 70% ethanol and final RNA extraction was achieved using the Promega Total RNA Isolation System with automation. […] Amplification of specific targets was performed by quantitative real-time polymerase chain reaction (qRT-PCR) using the TaqMan® gene expression system (Applied Biosystems Cat. No. 4369510) and ready to use TaqMan® primer/probes (see Table 1). […]

[3] = tested on: COPD BECs infected with HRV16; test: Gene expression by real-time PCR in ALI cultures of COPD BECs infected with HRV16; type: cell-based, human; details: 24 h post HRV16 infection
Description: as §1, §2
Ribonucleic acid (RNA) from ALI cultured COPD BECs was prepared by lysing the cells in RLT buffer supplied with Promega Total RNA Isolation System (Promega, Cat. No. Z3505). […] Amplification of specific targets was performed by quantitative real-time polymerase chain reaction (qRT-PCR) using the TaqMan® gene expression system (Applied Biosystems Cat. No. 4369510) and ready to use TaqMan® primer/probes (see Table 1). […]

[4] = tested on: COPD BECs infected with HRV16; test: Mucociliary responses of BECs infected with HRV16 (real-time PCR, AB/PAS staining, β-tubulin IV immunofluorescence); type: cell-based, human
Description: as §1, §3
Ribonucleic acid (RNA) from ALI cultured COPD BECs was prepared by lysing the cells in RLT buffer supplied with Promega Total RNA Isolation System (Promega, Cat. No. Z3505). RNA was then extracted by using the manufacturer's protocol with automation. Murine total lung RNA was isolated by first homogenisation of the lung in 1 ml TRIZOL™ reagent, then subsequent phase separation with 1-bromo-3-chloropropane (BCP) (MRC, Cat. No. BP151). The aqueous phase was then mixed with 70% ethanol and final RNA extraction was achieved using the Promega Total RNA Isolation System with automation. Complementary deoxyribonucleic acid (cDNA) was synthesised by reverse transcription using MultiScribe™ Reverse Transcriptase and random primers according to the manufacturer's protocol (Applied Biosystems, Cat. No. 4368814). Amplification of specific targets was performed by quantitative real-time polymerase chain reaction (qRT-PCR) using the TaqMan® gene expression system (Applied Biosystems Cat. No. 4369510) and ready to use TaqMan® primer/probes (see Table 1). Global gene expression analysis was performed by microarray using the Human Genome U133 Plus 2.0 genechip and was done either by Epistem Ltd. (Manchester, UK) or Expression Analysis, Inc. (Durham, US). Data analysis was performed using Array Studio software (OmicSoft Corporation, Cary, US) with GC-RMA normalisation algorithm. Probes with intensities less than the geometric mean of 64 were discarded. […]
ALI cultured BECs were fixed in 4% paraformaldehyde (PFA) overnight. Mucus load was assessed by histological sections with Alcian Blue/Periodic Acid Schiff (AB/PAS) stainings and were performed by the GSK PTS histological core facility. […]

[5] = tested on: female Balb/c mice following HRV1B inoculation; test: Inflammation and mucus gene expression in lungs of mice following HRV1B inoculation; type: in vivo; details: 8 h post infection, 0.5 mg/kg
Protocol: For in-vivo experiments, 8 weeks old female BALB/c mice were intra-nasally infected with 1×10^8 plaque forming units (PFUs) of human rhinovirus serotype 1b (HRV1b) virus in a total of 50 μl and either treated or not with a γ-secretase inhibitor CompB N2-[(2S)-2-(3,5-difluorophenyl)-2-hydroxyethanoyl]-N1-[(7S)-5-methyl-6-oxo-6,7-dihydro-5H-dibenzo[b,d]azepin-7-yl]-L-alaninamide at a concentration of 0.5 mg/kg. To assess inflammation to the lung, broncho-alveolar lavage fluid (BALF) was collected and cellular infiltrates analysed on the Sysmex cell analysis system (Milton Keynes, UK). Subsequently, whole lung was placed into 1 ml of TRIZOL™ reagent for downstream gene expression analysis.
as §4, with “BP151).” for “BP151). The aqueous phase was then mixed with 70% ethanol and final RNA extraction was achieved using the Promega Total RNA Isolation System with automation.”

[6] = healthy and COPD human BECs at ALI

Row | Compound | secretion of T-cell associated chemokines [1] | secretion of neutrophilic chemokines [1] | T-cell chemotaxis (T-cell) | neutrophil chemotaxis (healthy neutrophil) | cilia associated genes (expression) [2] | interferon response [2] | upregulation of goblet cell associated genes [2] | gene expression of T-cell associated chemokines [3] | gene expression of neutrophilic chemokines [3] | ciliation ([4]; COPD BECs, 72 h, ciliated cell genes and β-tubulin IV staining) | mucus production ([4]; COPD BECs, 72 h, goblet cell genes and AB/PAS staining) | loss of ciliation [4, 6] | mucus secretion [4, 6] | mucin gene expression (Muc5ac) in lungs [5] | recruitment of neutrophils into the lungs (BAL) [5]
1 | C[C@H](NC(=O)Cc1cc(F)cc(F)c1)C(=O)N[C@H]1N=C(c2ccccc2)c2ccccc2N(C)C1=O [CompA, (S)-2-[2-(3,5-difluorophenyl)-acetylamino]-N—((S)-1-methyl-2-oxo-5-phenyl-2,3-dihydro-1H-benzo[e][1,4]diazepin-3-yl)-propionamide] | less affected | reduced secretion | unaltered | reduced | restores cilia associated genes | left unaltered | inhibits upregulation of goblet cell associated genes | less affected | transcriptional inhibition | restores ciliation | inhibits mucus production | prevents the loss of ciliation | reduces mucus secretion |  | 
2 | C[C@H](NC(=O)[C@@H](O)c1cc(F)cc(F)c1)C(=O)N[C@@H]1C(=O)N(C)c2ccccc2-c2ccccc21 [CompB, N2-[(2S)-2-(3,5-difluorophenyl)-2-hydroxyethanoyl]-N1-[(7S)-5-methyl-6-oxo-6,7-dihydro-5H-dibenzo[b,d]azepin-7-yl]-L-alaninamide] |  |  |  |  |  |  |  |  |  |  |  |  |  | reduced | reduced
